Laboratory results published in paper PMC6304572, “Simultaneous Evaluation of the Influence of Panax ginseng on the Pharmacokinetics of Three Diester Alkaloids after Oral Administration of Aconiti Lateralis Radix in Rats Using UHPLC/QQQ-MS/MS” (Evidence-based Complementary and Alternative Medicine : eCAM, 2018).
Read-outs that look alike come from different tables or passages of the source.

What was measured:
[1] = Stability of the three alkaloids in rat plasma QC samples (4°C, room temperature, freeze-thaw); assay type: in vitro ADME; settings: for Freeze-thaw Accuracy: freeze-thaw three times; for Room temperature stability (24 h) Accuracy: room temperature (about 25°C)
Method: Plasma from rats without any processing was used to evaluate the detection methods. 0.1, 0.25, 0.5, 1, 2.5, 5, 10 ng/ml were chosen to calculate standards curve. 0.1, 0.4, 4, 8 ng/mL were selected as the QC sample (n = 4) with repeated operations used to calculate accuracy and precision of the detection method. The data was acquired after keeping the samples at either +4°C 24 hours or room temperature (about 25°C) for 24 hours as well as using freeze-thaw methods (three times) to evaluate stability. Recovery of the developed methods was calculated by the following formula: recovery = measured value/ theoretical value × 100%.

[2] = Pharmacokinetics of three diester alkaloids in rat plasma after oral Aconiti Lateralis Radix extract, with or without 7-day P. ginseng pretreatment; assay type: in vivo, Sprague-Dawley rats; settings: for CL/F / Cmax / Tmax / Vd/F / half-life: Sprague-Dawley, rat, in vivo, po, 1 g/kg; for CL/F / Cmax / Tmax / Vd/F / half-life / AUC(0-t) / AUC(0-∞): oral Aconiti Lateralis Radix extract 1 g/kg on 8th day; for CL/F: read-out: CLz/F (converted); for Cmax: read-out: Cmax; for Tmax: read-out: Tmax; for Vd/F: read-out: Vz/F; for half-life: read-out: t1/2z (converted)
Method: Rats were randomly divided into 4 groups: control group, P. ginseng (low, middle, and high) group. 7 days of oral administration of P. ginseng extract was administered at a dosage of 0.1, 1, 10 g/kg for P. ginseng group (low, middle, and high), respectively, once daily. Distilled water was administered at a dosage of 2 ml/kg for control group, simultaneously. On the 8th day, Aconiti Lateralis Radix extracts (1 g/kg) were orally administered to all groups. 0.5 ml plasma samples were collected in 1.5 ml centrifuge tubes (containing heparin sodium) at 10, 30, 60, 90, 120, 240, 480, 720, 1440, and 2880 min. All plasma samples were centrifuged for 15 min at 4000g. The supernatant was separated to another 1.5 ml centrifuge tubes and stored at -20°C.
Liquid-liquid extraction (ethyl acetate) and protein precipitation (50% acetonitrile plus 50% methanol) methods were compared to determine the best method to prepare the plasma sample. Liquid-liquid extraction method was chosen, due to reproducibly high recovery rates. The details of the extraction are as follows: 10 μL carbamazepine (IS) was added to 90 μL plasma, spiked with 400 μL ethyl acetate and the mixture vortexed for 15 seconds. After centrifugation at 12,000g for 10 min, the supernatant was transferred to another 1.5 mL centrifuge tube and dried under a stream of nitrogen at 37°C. The residue was redissolved in 100 μL 50% acetonitrile and centrifuged at 12,000g for 10 min and filtered through a 0.22 μm Micropore membrane. A 5 μL volume of supernatant was injected into LC-MS system for analysis.
Xevo TQ-S (Waters, USA) was utilized for the analysis of all biological samples. Chromatographic separation was conducted on Waters ACQUITY UPLC HSS T3 1.8 μm column (2.1 mm × 100 mm). Column temperature was 45°C and the flow rate was 0.5ml/min. Room temperature was 20 ± 2°C. Phase A consisted of water and 0.1% formic acid (v/v), and phase B consisted of acetonitrile (ACN) 0.1% formic acid (v/v). Column separation was performed by gradient elution: 0-0.5 min, 10% B; 1-2 min, 90% B; 4 min, 10% B.
Electrospray ionization (ESI) and positive ion V mode were used to determine the samples. The main parameters for mass spectrum were set as follows: capillary voltage: 3.5 kv; sample cone: 60 v; source offset: 50 v; source temperature: 150°C; desolvation temperature: 350°C; cone gas flow: 150 L/h; desolvation gas flow: 650 L/h; injection volume: 5 μL.
The data was acquired and analyzed by XEVO-QT-S (Waters). The pharmacokinetic parameters were analyzed by DAS pharmacokinetic program (Version 2.0). SAS statistical software was used to determine the difference between each group. All data was presented as mean ± SD, and P<0.05 was considered statistically significant.

[3] = P. ginseng-high (10 g/kg oral, 7 days)
[4] = P. ginseng-low (0.1 g/kg oral, 7 days)
[5] = P. ginseng-middle (1 g/kg oral, 7 days)
[6] = control group (distilled water 7 days)

SMILES | 4°C temperature stability (24 h) Accuracy ([1]; QC conc. 0.40 ng/mL) | Freeze-thaw Accuracy ([1]; QC conc. 0.40 ng/mL) | Room temperature stability (24 h) Accuracy ([1]; QC conc. 0.40 ng/mL) | 4°C temperature stability (24 h) Accuracy ([1]; QC conc. 4.00 ng/mL) | Freeze-thaw Accuracy ([1]; QC conc. 4.00 ng/mL) | Room temperature stability (24 h) Accuracy ([1]; QC conc. 4.00 ng/mL) | 4°C temperature stability (24 h) Accuracy ([1]; QC conc. 8.00 ng/mL) | Freeze-thaw Accuracy ([1]; QC conc. 8.00 ng/mL) | Room temperature stability (24 h) Accuracy ([1]; QC conc. 8.00 ng/mL) | CL/F [2, 3] | Cmax [2, 3] | Tmax [2, 3] | Vd/F [2, 3] | half-life [2, 3] | CL/F [2, 4] | Cmax [2, 4] | Tmax [2, 4] | Vd/F [2, 4] | half-life [2, 4] | CL/F [2, 5] | also measured
COC[C@@]12CC[C@H](OC)[C@]34C(C([C@H](OC)[C@H]13)[C@]1(OC(C)=O)[C@H]3[C@@H](OC(=O)c5ccccc5)[C@](O)(C[C@H]34)[C@@H](OC)[C@@H]1O)N(C)C2 [Hypaconitine] | 97.44 ± 2.35% | 99.71 ± 2.06% | 100.49 ± 2.52% | 104.96 ± 5.49% | 100.26 ± 6.03% | 98.72 ± 4.30% | 101.13 ± 4.82% | 102.33 ± 3.19% | 100.64 ± 3.60% | 2320 mL/min/kg | 4.87 ± 1.36 ng/mL | 1.83 ± 1.29 h | 2280 ± 954 L/kg | 11.7 ± 4.21 h | 2380 mL/min/kg | 4.02 ± 2.01 ng/mL | 3.61 ± 3.47 h | 2020 ± 819 L/kg | 9.7 ± 3.55 h | 2360 mL/min/kg | Cmax [2, 5]: 5.85 ± 2.71 ng/mL; Tmax [2, 5]: 2.53 ± 3.01 h; Vd/F [2, 5]: 1400 ± 272 L/kg; half-life [2, 5]: 6.97 ± 1.77 h; CL/F [2, 6]: 3400 mL/min/kg; Cmax [2, 6]: 4.63 ± 1.96 ng/mL; Tmax [2, 6]: 2.67 ± 2.91 h; Vd/F [2, 6]: 3880 ± 1700 L/kg; half-life [2, 6]: 14.1 ± 5.41 h; Change of Cmax versus control ([2]; all P. ginseng groups compared to control): did not change; AUC(0-t) [2, 3]: 71.75 ± 22.2^∗ μg/L∗h; AUC(0-∞) [2, 3]: 77.26 ± 25.15^∗ μg/L∗h; AUC(0-t) ([2]; P. ginseng-high (10 g/kg oral, 7 days), listed as hypaconitine): 71.75 ± 22.2 μg/L∗h; AUC(0-t) [2, 4]: 65.64 ± 13.14 μg/L∗h; AUC(0-∞) [2, 4]: 70.68 ± 8.89^∗ μg/L∗h; AUC(0-t) [2, 5]: 70.71 ± 7.55^∗ μg/L∗h; AUC(0-∞) [2, 5]: 71.49 ± 8.07^∗ μg/L∗h; AUC(0-t) ([2]; P. ginseng-middle (1 g/kg oral, 7 days), listed as hypaconitine): 70.71 ± 7.55 μg/L∗h; AUC(0-t) [2, 6]: 48.12 ± 24.59 μg/L∗h; AUC(0-∞) [2, 6]: 60.16 ± 28.03 μg/L∗h
CCN1C[C@]2(COC)[C@H](O)C[C@H](OC)[C@@]34[C@@H]5C[C@@]6(O)[C@H](OC(=O)c7ccccc7)[C@@H]5[C@@](OC(C)=O)([C@@H]([C@H](OC)[C@H]23)[C@@H]14)[C@@H](O)[C@@H]6OC [Aconitine] | 99.65 ± 2.16% | 99.71 ± 2.06% | 100.49 ± 2.52% | 98.98 ± 9.99% | 99.91 ± 6.23% | 96.29 ± 3.26% | 101.57 ± 1.29% | 100.22 ± 1.87% | 97.66 ± 4.54% | 852 mL/min/kg | 11.5 ± 3.49 ng/mL | 1.33 ± 0.41 h | 1550 ± 686 L/kg | 26.5 ± 23.3 h | 2870 mL/min/kg | 5.03 ± 3.02 ng/mL | 4 ± 3.27 h | 2480 ± 945 L/kg | 10.1 ± 3.72 h | 2830 mL/min/kg | Cmax [2, 5]: 5.79 ± 2.8 ng/mL; Tmax [2, 5]: 2.11 ± 2.97 h; Vd/F [2, 5]: 1460 ± 190 L/kg; half-life [2, 5]: 6.14 ± 1.18 h; CL/F [2, 6]: 3760 mL/min/kg; Cmax [2, 6]: 3.88 ± 0.92 ng/mL; Tmax [2, 6]: 2.67 ± 2.91 h; Vd/F [2, 6]: 3350 ± 1370 L/kg; half-life [2, 6]: 10.7 ± 4.78 h; AUC(0-t) [2, 3]: 162.98 ± 48.50^∗∗ μg/L∗h; AUC(0-∞) [2, 3]: 228.56 ± 100.03^∗∗ μg/L∗h; AUC(0-t) ([2]; P. ginseng-high (10 g/kg oral, 7 days), listed as aconitine): 162.98 ± 48.50 μg/L∗h; AUC(0-t) [2, 4]: 58 ± 13.02 μg/L∗h; AUC(0-∞) [2, 4]: 60.32 ± 12.99 μg/L∗h; AUC(0-t) [2, 5]: 61.05 ± 12.82^∗ μg/L∗h; AUC(0-∞) [2, 5]: 61.49 ± 13.16^∗ μg/L∗h; AUC(0-t) ([2]; P. ginseng-middle (1 g/kg oral, 7 days), listed as aconitine): 61.05 ± 12.82 μg/L∗h; AUC(0-t) [2, 6]: 40.77 ± 9.71 μg/L∗h; AUC(0-∞) [2, 6]: 46.20 ± 9.57 μg/L∗h
